The source of these data is US8044052B2, “Biaryl ether urea compounds” (Pfizer Inc., priority 2006, dated 2011).

SMILES strings stand for the structures. Where a name gives a salt, the structure may show the parent alone.

This test concerns the target T1, Human FAAH (Homo sapiens, UniProt O00519).
T1 construct: made in house
T1 sequence (O00519 1-579): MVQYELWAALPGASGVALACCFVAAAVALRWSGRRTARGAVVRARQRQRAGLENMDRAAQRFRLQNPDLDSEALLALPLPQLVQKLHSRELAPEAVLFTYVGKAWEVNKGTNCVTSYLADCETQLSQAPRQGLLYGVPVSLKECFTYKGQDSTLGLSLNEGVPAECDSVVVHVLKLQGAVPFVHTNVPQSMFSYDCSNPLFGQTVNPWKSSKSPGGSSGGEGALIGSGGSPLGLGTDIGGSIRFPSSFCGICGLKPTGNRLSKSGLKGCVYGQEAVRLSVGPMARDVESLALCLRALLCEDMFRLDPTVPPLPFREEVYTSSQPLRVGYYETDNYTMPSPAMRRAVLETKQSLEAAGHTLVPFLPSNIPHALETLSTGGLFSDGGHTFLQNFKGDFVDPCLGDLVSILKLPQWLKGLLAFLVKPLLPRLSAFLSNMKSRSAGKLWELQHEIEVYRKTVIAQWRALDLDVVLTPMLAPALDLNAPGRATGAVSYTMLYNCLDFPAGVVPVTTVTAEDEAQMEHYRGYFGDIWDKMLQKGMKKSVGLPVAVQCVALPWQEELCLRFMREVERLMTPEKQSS
Nature of the test: FAAH assay (glutamate dehydrogenase-coupled, oleamide substrate, absorbance at 340 nm). As to conditions: irreversible inhibition, 1-4 nM FAAH, pH 7.4, 30° C., 90 min, read-out: hFAAH kinact/Ki. Format: biochemical. As for the experimental part: The FAAH assay was carried out in 384-well clear polystyrene plates in a total volume of 50 μl per well. All percents are by volume. To each well, was placed the reaction mixture (40 μl) containing 1-4 nM FAAH, 50 mM NaPi, pH 7.4, 3 mM α-ketoglutarate, 0.15 mM NADH, 7.5 U/ml glutamate dehydrogenase, 2 mM ADP, 1 mM EDTA, and 0.1% Triton X-100 (The concentration shown for each component is the final concentration in the assay). […] This was immediately followed by the addition of 5 μl oleamide (500 μM) dissolved in 75% EtOH/25% DMSO and the reaction mixture was mixed for 1.5 min. The final concentrations of DMSO and EtOH in the assay were each 7.5%.
Initial velocity data (V) were obtained from the slopes of the initial progressive curves. They were plotted as a function of substrate concentration and fit to the Michaelis-Menten equation (1) using Prism (GraphPad Software, Inc., San Diego, Calif.) software to obtain Km and Vmax values.
To obtain potencies of irreversible inhibitors, progressive curves consistent with first order inhibition kinetics (two-step irreversible inhibition mechanism) were fit to equation (2) by nonlinear least squares regressions to determine kobs values at each inhibitor concentration, where [P]t is the absorbance at time t, V0 is a constant related to the steady state rate of the uninhibited reaction, and kobs is the first order rate constant for enzyme inactivation. The inhibitor dissociation constant (Ki) and the first order rate
[formula] constant of enzyme inactivation at infinite inhibitor concentration (kinact) were then obtained by fitting the kobs vs. [I] curves to equation (3).

Consider `O=C(Nc1cccnn1)N1CCC(=Cc2cccc(Oc3ccc(C(F)(F)F)nc3)c2)CC1` [Example 57, 4-(3-(6-(trifluoromethyl)pyridin-3-yloxy)benzylidene)-N-(pyridazin-3-yl)piperidine-1-carboxamide], for which the kinact/KI was 16800 M⁻¹ s⁻¹.
Take `CCOc1cc(C=C2CCN(C(=O)Nc3cccnc3)CC2)cc(Oc2ccc(C(F)(F)F)cn2)c1` [Example 58, 4-(3-ethoxy-5-(5-(trifluoromethyl)pyridin-2-yloxy)benzylidene)-N-(pyridin-3-yl)piperidine-1-carboxamide]: the kinact/KI came out at 322 M⁻¹ s⁻¹.
Turning to `O=C(Nc1cccnc1)N1CCC(=Cc2ccc(Cl)c(Oc3ccc(C(F)(F)F)cn3)c2)CC1` [Example 59, 4-(4-chloro-3-(5-(trifluoromethyl)pyridin-2-yloxy)benzylidene)-N-(pyridin-3-yl)piperidine 1-carboxamide], the kinact/KI stood at 260 M⁻¹ s⁻¹.
`Cc1ccc(C=C2CCN(C(=O)Nc3cccnc3)CC2)cc1Oc1ccc(C(F)(F)F)cn1` [Example 60, 4-(4-methyl-3-(5-(trifluoromethyl)pyridin-2-yloxy)benzylidene)-N-(pyridin-3-yl)piperidine-1-carboxamide]: the kinact/KI came out at 1580 M⁻¹ s⁻¹.
For the molecule `Cc1cc(C=C2CCN(C(=O)Nc3cccnc3)CC2)cc(Oc2ccc(C(F)(F)F)cn2)c1` [Example 61, 4-(3-methyl-5-(5-(trifluoromethyl)pyridin-2-yloxy)benzylidene)-N-(pyridin-3-yl)piperidine-1-carboxamide], the kinact/KI is 2130 M⁻¹ s⁻¹.
`O=C(Nc1cccnc1)N1CCC(=Cc2cc(Br)cc(Oc3ccc(C(F)(F)F)cn3)c2)CC1` [Example 62, 4-(3-bromo-5-(5-(trifluoromethyl)pyridin-2-yloxy)benzylidene)-N-(pyridin-3-yl)piperidine-1-carboxamide]: the kinact/KI stood at 1370 M⁻¹ s⁻¹.
Turning to `O=C(Nc1cccnn1)N1CCC(=Cc2cc(Br)cc(Oc3ccc(C(F)(F)F)cn3)c2)CC1` [Example 63, 4-(3-bromo-5-(5-(trifluoromethyl)pyridin-2-yloxy)benzylidene)-N-(pyridazin-3-yl)piperidine-1-carboxamide], the kinact/KI worked out at 2530 M⁻¹ s⁻¹.
As to `O=C(Nc1cccnn1)N1CCC(=Cc2cc(Oc3ccc(C(F)(F)F)cn3)cc(C3CC3)c2)CC1` [Example 64, 4-(3-cyclopropyl-5-(5-(trifluoromethyl)pyridin-2-yloxy)benzylidene)-N-(pyridazin-3-yl)piperidine-1-carboxamide], the kinact/KI stood at 417 M⁻¹ s⁻¹.
For `O=C(Nc1cccnc1)N1CCC(=Cc2cc(F)cc(Oc3ccc(C(F)(F)F)cn3)c2)CC1` [Example 65, 4-(3-fluoro-5-(5-(trifluoromethyl)pyridin-2-yloxy)benzylidene)-N-(pyridin-3-yl)piperidine-1-carboxamide] the value was 6710 M⁻¹ s⁻¹; for `O=C(Nc1cccnc1)N1CCC(=C(Br)c2cccc(Oc3ccc(C(F)(F)F)cn3)c2)CC1` [Example 66, 4-(bromo(3-(5-(trifluoromethyl)pyridin-2-yloxy)phenyl)methylene)-N-(pyridin-3-yl)piperidine-1-carboxamide], 1560 M⁻¹ s⁻¹.
Take `CC(=C1CCN(C(=O)Nc2cccnc2)CC1)c1cccc(Oc2ccc(C(F)(F)F)cn2)c1` [Example 67, N-(pyridin-3-yl)-4-(1-(3-(5-(trifluoromethyl)pyridin-2-yloxy)phenyl)ethylidene)piperidine-1-carboxamide]: the kinact/KI came out at 5980 M⁻¹ s⁻¹.
The figure for `O=C(Nc1cccnc1)N1CCC(=C(c2ccccc2)c2cccc(Oc3ccc(C(F)(F)F)cn3)c2)CC1` [Example 68, 4-(phenyl(3-(5-(trifluoromethyl)pyridin-2-yloxy)phenyl)methylene)-N-(pyridin-3-yl)piperidine-1-carboxamide] is 206 M⁻¹ s⁻¹.
For the molecule `O=C(Nc1cccnc1)N1CCC(=C(F)c2cccc(Oc3ccc(C(F)(F)F)cn3)c2)CC1` [Example 69, 4-(fluoro(3-(5-(trifluoromethyl)pyridin-2-yloxy)phenyl)methylene)-N-(pyridin-3-yl)piperidine-1-carboxamide], the kinact/KI was 2300 M⁻¹ s⁻¹.
Take `COc1ccc(NC(=O)N2CCC(=C(F)c3cccc(Oc4ccc(C(F)(F)F)cn4)c3)CC2)cn1` [Example 71, 4-(fluoro(3-(5-(trifluoromethyl)pyridin-2-yloxy)phenyl)methylene)-N-(6-methoxypyridin-3-yl)piperidine-1-carboxamide]: the kinact/KI is 777 M⁻¹ s⁻¹.
In the case of `Cc1ccnc(Oc2cccc(C=C3CCN(C(=O)Nc4cccnc4)CC3)c2)c1` [Example 72, 4-{3-[(4-methylpyridin-2-yl)oxy]benzylidene}-N-pyridin-3-ylpiperidine-1-carboxamide], the kinact/KI turned out to be 681 M⁻¹ s⁻¹.
`Cc1ccnc(Oc2cccc(C=C3CCN(C(=O)Nc4cccnn4)CC3)c2)c1` [Example 73, 4-{3-[(4-methylpyridin-2-yl)oxy]benzylidene}-N-pyridazin-3-ylpiperidine-1-carboxamide]: the kinact/KI was 963 M⁻¹ s⁻¹.
For `O=C(Nc1cnoc1)N1CCC(=Cc2cccc(Oc3ccc(C(F)(F)F)cn3)c2)CC1` [Example 75, N-isoxazol-4-yl-4-(3-{[5-(trifluoromethyl)pyridin-2-yl]oxy}benzylidene)piperidine-1-carboxamide], the kinact/KI stood at 3620 M⁻¹ s⁻¹.
As to `Cn1ccc(NC(=O)N2CCC(=Cc3cccc(Oc4ccc(C(F)(F)F)cn4)c3)CC2)n1` [Example 77, N-(1-methyl-1H-pyrazol-3-yl)-4-(3-{[5-(trifluoromethyl)pyridin-2-yl]oxy}benzylidene)piperidine-1-carboxamide], the kinact/KI turned out to be 339 M⁻¹ s⁻¹.
As to `Cn1ncc(NC(=O)N2CCC(=Cc3cccc(Oc4ccc(C(F)(F)F)cn4)c3)CC2)n1` [Example 78, N-(2-methyl-2H-1,2,3-triazol-4-yl)-4-(3-{[5-(trifluoromethyl)pyridin-2-yl]oxy}benzylidene)piperidine-1-carboxamide], the kinact/KI stood at 2100 M⁻¹ s⁻¹.
For `O=C(Nc1ncccc1O)N1CCC(=Cc2cccc(Oc3ccc(C(F)(F)F)cn3)c2)CC1` [Example 79, N-(3-hydroxypyridin-2-yl)-4-(3-{[5-(trifluoromethyl)pyridin-2-yl]oxy}benzylidene)piperidine-1-carboxamide trifluoroacetate] the value was 4880 M⁻¹ s⁻¹.
Take `CCc1cc(NC(=O)N2CCC(=Cc3cccc(Oc4ccc(C(F)(F)F)cn4)c3)CC2)[nH]n1` [Example 80, N-(3-ethyl-1H-pyrazol-5-yl)-4-(3-{[5-(trifluoromethyl)pyridin-2-yl]oxy}benzylidene)piperidine-1-carboxamide trifluoroacetate]: the kinact/KI turned out to be 353 M⁻¹ s⁻¹.
For the molecule `CCn1ncnc1NC(=O)N1CCC(=Cc2cccc(Oc3ccc(C(F)(F)F)cn3)c2)CC1` [Example 81, N-(1-ethyl-1H-1,2,4-triazol-5-yl)-4-(3-{[5-(trifluoromethyl)pyridin-2-yl]oxy}benzylidene)piperidine-1-carboxamide trifluoroacetate], the kinact/KI stood at 1010 M⁻¹ s⁻¹.
In the case of `O=C(Nc1cccc(CO)c1)N1CCC(=Cc2cccc(Oc3ccc(C(F)(F)F)cn3)c2)CC1` [Example 82, N-[3-(hydroxymethyl)phenyl]-4-(3-{[5-(trifluoromethyl)pyridin-2-yl]oxy}benzylidene)piperidine-1-carboxamide], the kinact/KI came out at 979 M⁻¹ s⁻¹.
The figure for `O=C(Nc1cc(CO)ccn1)N1CCC(=Cc2cccc(Oc3ccc(C(F)(F)F)cn3)c2)CC1` [Example 83, N-[4-(hydroxymethyl)pyridin-2-yl]-4-(3-{[5-(trifluoromethyl)pyridin-2-yl]oxy}benzylidene)piperidine-1-carboxamide trifluoroacetate] is 356 M⁻¹ s⁻¹; for `O=C(Nc1ccc(Cl)nn1)N1CCC(=Cc2cccc(Oc3ccc(C(F)(F)F)cn3)c2)CC1` [Example 84, N-(6-chloropyridazin-3-yl)-4-(3-{[5-(trifluoromethyl)pyridin-2-yl]oxy}benzylidene)piperidine-1-carboxamide] it is 5590 M⁻¹ s⁻¹; for `O=C(Nc1cccnn1)N1CCC(=Cc2cccc(Oc3ccc(N4CCCC4)cn3)c2)CC1` [Example 85, 4-(3-(5-(pyrrolidin-1-yl)pyridin-2-yloxy)benzylidene)-N-(pyridazin-3-yl)piperidine-1-carboxamide] it is 1540 M⁻¹ s⁻¹.
